Experimental data as given in ChEMBL document CHEMBL3994622, “Design and synthesis of new RAF kinase-inhibiting antiproliferative quinoline derivatives. Part 2: Diarylurea derivatives” (Eur J Med Chem, 2017).

Legend:
Assay type in all cases: functional
PC-3 = test: Growth inhibition of human PC3 cells assessed as cell growth at 30 uM incubated for 48 hrs by sulforhodamine B assay relative to control; conditions: PC-3, 48 h, read-out: Activity
SF-539 [1] = test: Growth inhibition of human SF539 cells assessed as cell growth at 30 uM incubated for 48 hrs by sulforhodamine B assay relative to control; conditions: SF-539, 48 h, read-out: Activity
HCC 2998 [2] = test: Growth inhibition of human HCC2998 cells assessed as cell growth at 30 uM incubated for 48 hrs by sulforhodamine B assay relative to control; conditions: HCC 2998, 48 h, read-out: Activity
RXF 393 [3] = test: Growth inhibition of human RXF393 cells assessed as cell growth at 30 uM incubated for 48 hrs by sulforhodamine B assay relative to control; conditions: RXF 393, 48 h, read-out: Activity
MDA-MB-231 = test: Growth inhibition of human MDA-MB-231 cells assessed as cell growth at 30 uM incubated for 48 hrs by sulforhodamine B assay relative to control; conditions: MDA-MB-231, 48 h, read-out: Activity
BT-549 = test: Growth inhibition of human BT549 cells assessed as cell growth at 0.3 uM incubated for 48 hrs by sulforhodamine B assay relative to control; conditions: BT-549, 48 h, read-out: Activity
SW-620 [4] = test: Growth inhibition of human SW620 cells assessed as cell growth at 3 uM incubated for 48 hrs by sulforhodamine B assay relative to control; conditions: SW-620, 48 h, read-out: Activity
HCT-116 = test: Growth inhibition of human HCT116 cells assessed as cell growth at 0.003 uM incubated for 48 hrs by sulforhodamine B assay relative to control; conditions: HCT-116, 48 h, read-out: Activity
CAKI-1 [5] = test: Growth inhibition of human Caki1 cells assessed as cell growth at 0.03 uM incubated for 48 hrs by sulforhodamine B assay relative to control; conditions: CAKI-1, 48 h, read-out: Activity
RXF 393 [6] = test: Growth inhibition of human RXF393 cells assessed as cell growth at 0.03 uM incubated for 48 hrs by sulforhodamine B assay relative to control; conditions: RXF 393, 48 h, read-out: Activity
HCC 2998 [7] = test: Growth inhibition of human HCC2998 cells assessed as cell growth at 0.003 uM incubated for 48 hrs by sulforhodamine B assay relative to control; conditions: HCC 2998, 48 h, read-out: Activity
SW-620 [8] = test: Growth inhibition of human SW620 cells assessed as cell growth at 0.03 uM incubated for 48 hrs by sulforhodamine B assay relative to control; conditions: SW-620, 48 h, read-out: Activity
SN12C = test: Growth inhibition of human SN12C cells assessed as cell growth at 0.3 uM incubated for 48 hrs by sulforhodamine B assay relative to control; conditions: read-out: Activity
TK-10 = test: Growth inhibition of human TK10 cells assessed as cell growth at 0.003 uM incubated for 48 hrs by sulforhodamine B assay relative to control; conditions: TK-10, 48 h, read-out: Activity
SF-539 [9] = test: Growth inhibition of human SF539 cells assessed as cell growth at 0.003 uM incubated for 48 hrs by sulforhodamine B assay relative to control; conditions: SF-539, 48 h, read-out: Activity
OVCAR-8 = test: Growth inhibition of human OVCAR8 cells assessed as cell growth at 0.003 uM incubated for 48 hrs by sulforhodamine B assay relative to control; conditions: OVCAR-8, 48 h, read-out: Activity
M14 = test: Growth inhibition of human M14 cells assessed as cell growth at 0.03 uM incubated for 48 hrs by sulforhodamine B assay relative to control; conditions: M14, 48 h, read-out: Activity
RPMI-8226 = test: Growth inhibition of human RPMI8226 cells assessed as cell growth at 0.003 uM incubated for 48 hrs by sulforhodamine B assay relative to control; conditions: RPMI-8226, 48 h, read-out: Activity
UACC-62 = test: Growth inhibition of human UACC62 cells assessed as cell growth at 3 uM incubated for 48 hrs by sulforhodamine B assay relative to control; conditions: UACC-62, 48 h, read-out: Activity
T47D = test: Growth inhibition of human T47D cells assessed as cell growth at 1 uM incubated for 48 hrs by sulforhodamine B assay relative to control; conditions: read-out: Activity
CAKI-1 [10] = test: Growth inhibition of human Caki1 cells assessed as cell growth at 10 uM incubated for 48 hrs by sulforhodamine B assay relative to control; conditions: CAKI-1, 48 h, read-out: Activity
OVCAR-3 = test: Growth inhibition of human OVCAR3 cells assessed as cell growth at 1 uM incubated for 48 hrs by sulforhodamine B assay relative to control; conditions: OVCAR-3, 48 h, read-out: Activity
NCI-H226 [11] = test: Growth inhibition of human NCI-H226 cells assessed as cell growth at 1 uM incubated for 48 hrs by sulforhodamine B assay relative to control; conditions: NCI-H226, 48 h, read-out: Activity
UO-31 = test: Growth inhibition of human UO31 cells assessed as cell growth at 1 uM incubated for 48 hrs by sulforhodamine B assay relative to control; conditions: UO-31, 48 h, read-out: Activity
NCI-H322M = test: Growth inhibition of human NCI-H322M cells assessed as cell growth at 1 uM incubated for 48 hrs by sulforhodamine B assay relative to control; conditions: read-out: Activity
SNB-75 = test: Growth inhibition of human SNB75 cells assessed as cell growth at 1 uM incubated for 48 hrs by sulforhodamine B assay relative to control; conditions: SNB-75, 48 h, read-out: Activity
NCI-H226 [12] = test: Growth inhibition of human NCI-H226 cells assessed as cell growth at 0.01 uM incubated for 48 hrs by sulforhodamine B assay relative to control; conditions: NCI-H226, 48 h, read-out: Activity
LOX IMVI = test: Growth inhibition of human LOXIMVI cells assessed as cell growth at 1 uM incubated for 48 hrs by sulforhodamine B assay relative to control; conditions: read-out: Activity
NCI-H226 [13] = test: Growth inhibition of human NCI-H226 cells assessed as cell growth at 100 uM incubated for 48 hrs by sulforhodamine B assay relative to control; conditions: NCI-H226, 48 h, read-out: Activity
UACC-257 = test: Growth inhibition of human UACC257 cells assessed as cell growth at 10 uM incubated for 48 hrs by sulforhodamine B assay relative to control; conditions: UACC-257, 48 h, read-out: Activity
MDA-MB-435 = test: Growth inhibition of human MDA-MB-435 cells assessed as cell growth at 0.1 uM incubated for 48 hrs by sulforhodamine B assay relative to control; conditions: MDA-MB-435, 48 h, read-out: Activity
OVCAR-4 = test: Growth inhibition of human OVCAR4 cells assessed as cell growth at 0.01 uM incubated for 48 hrs by sulforhodamine B assay relative to control; conditions: OVCAR-4, 48 h, read-out: Activity
SF-268 = test: Growth inhibition of human SF268 cells assessed as cell growth at 10 uM incubated for 48 hrs by sulforhodamine B assay relative to control; conditions: SF-268, 48 h, read-out: Activity
A549 = test: Growth inhibition of human A549/ATCC cells assessed as cell growth at 1 uM incubated for 48 hrs by sulforhodamine B assay relative to control; conditions: A549, 48 h, read-out: Activity

| SMILES | growth at 30 µM (PC-3) | growth at 30 µM (SF-539 [1]) | growth at 30 µM (HCC 2998 [2]) | growth at 30 µM (RXF 393 [3]) | growth at 30 µM (MDA-MB-231) | growth at 0.3 µM (BT-549) | growth at 3 µM (SW-620 [4]) | growth at 0.003 µM (HCT-116) | growth at 0.03 µM (CAKI-1 [5]) | growth at 0.03 µM (RXF 393 [6]) | growth at 0.003 µM (HCC 2998 [7]) | growth at 0.03 µM (SW-620 [8]) | growth at 0.3 µM (SN12C) | growth at 0.003 µM (TK-10) | growth at 0.003 µM (SF-539 [9]) | growth at 0.003 µM (OVCAR-8) | growth at 0.03 µM (M14) | growth at 0.003 µM (RPMI-8226) | growth at 3 µM (UACC-62) | growth at 1 µM (T47D) | other results |
| --- | --- | --- | --- | --- | --- | --- | --- | --- | --- | --- | --- | --- | --- | --- | --- | --- | --- | --- | --- | --- | --- |
| COc1cc2cc(Oc3ccc(NC(=O)Nc4ccc(Cl)c(C(F)(F)F)c4)cc3)c(C)nc2cc1OC | -50% | -49% | -98% | -80% | -74% | 85% | 15% | 100% | 96% | 104% | 102% | 100% | 94% | 94% | 108% | 94% | 82% | 100% | 28% |  |  |
| COc1cc2cc(Oc3ccc(NC(=O)Nc4ccc(Cl)c(Cl)c4)cc3)c(C)nc2cc1OC |  |  |  |  |  |  |  |  |  |  |  |  |  |  |  |  |  |  |  | 88% | growth at 10 µM (CAKI-1 [10]): -18%; growth at 1 µM (OVCAR-3): 94%; growth at 1 µM (NCI-H226 [11]): 106%; growth at 1 µM (UO-31): 100%; growth at 1 µM (NCI-H322M): 102%; growth at 1 µM (SNB-75): 83%; growth at 0.01 µM (NCI-H226 [12]): 104%; growth at 1 µM (LOX IMVI): 85%; growth at 100 µM (NCI-H226 [13]): -85%; growth at 10 µM (UACC-257): -23%; growth at 0.1 µM (MDA-MB-435): 92%; growth at 0.01 µM (OVCAR-4): 95%; growth at 10 µM (SF-268): 44%; growth at 1 µM (A549): 66% |
| COc1cc2cc(Oc3ccc(NC(=O)Nc4cc(C(F)(F)F)cc(C(F)(F)F)c4)cc3)c(C)nc2cc1OC |  |  |  |  |  |  |  |  |  |  |  |  |  |  |  |  |  |  |  | 64% | growth at 10 µM (CAKI-1 [10]): -26%; growth at 1 µM (OVCAR-3): 27%; growth at 1 µM (NCI-H226 [11]): 88%; growth at 1 µM (UO-31): 19%; growth at 1 µM (NCI-H322M): 59%; growth at 1 µM (SNB-75): 75%; growth at 0.01 µM (NCI-H226 [12]): 103%; growth at 1 µM (LOX IMVI): 75%; growth at 100 µM (NCI-H226 [13]): -52%; growth at 10 µM (UACC-257): -38%; growth at 0.1 µM (MDA-MB-435): 98%; growth at 0.01 µM (OVCAR-4): 85%; growth at 10 µM (SF-268): -61%; growth at 1 µM (A549): 65% |
| Cc1nc2cc(O)c(O)cc2cc1Oc1ccc(NC(=O)Nc2ccc(Cl)c(Cl)c2)cc1 | 6% | -19% | -51% | 7% | 6% | 92% | 57% | 93% | 94% | 96% | 99% | 97% | 105% | 98% | 102% | 98% | 89% | 93% | 91% |  |  |
